Test results taken from publication PMC4628873 (Bioorganic & medicinal chemistry letters, 2015).

Columns and labels:
5-HT2A receptor [1] = biological target: T1, 5-HT2A receptor (Homo sapiens, UniProt P28223); assay: FLIPR calcium mobilization functional assay, human 5-HT2A receptor; details: for Selectivity α1A/5-HT2A: ratio of Ke α1A / Ke 5-HT2A
α1A adrenergic receptor [2] = biological target: T2, α1A adrenergic receptor (Homo sapiens, UniProt P35348); assay: FLIPR calcium mobilization functional assay, α1A adrenergic receptor
T2 sequence (P35348 1-466): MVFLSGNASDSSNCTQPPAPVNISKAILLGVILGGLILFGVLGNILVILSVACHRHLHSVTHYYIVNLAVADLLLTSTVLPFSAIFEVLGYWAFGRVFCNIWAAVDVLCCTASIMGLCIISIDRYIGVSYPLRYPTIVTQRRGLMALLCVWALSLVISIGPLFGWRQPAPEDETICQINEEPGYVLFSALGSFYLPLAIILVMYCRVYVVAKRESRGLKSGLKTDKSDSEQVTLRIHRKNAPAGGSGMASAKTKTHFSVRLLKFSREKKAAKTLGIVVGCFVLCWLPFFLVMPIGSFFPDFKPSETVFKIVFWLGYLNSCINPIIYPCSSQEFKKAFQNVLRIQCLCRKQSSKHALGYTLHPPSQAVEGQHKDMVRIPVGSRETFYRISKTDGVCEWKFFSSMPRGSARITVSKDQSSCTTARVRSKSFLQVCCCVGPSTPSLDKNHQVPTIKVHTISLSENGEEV

5-HT5A = 5-HT5A (Homo sapiens, UniProt P47898); assay: PDSP screening; details: no affinity
NET = NET (Homo sapiens, UniProt P23975); assay: PDSP screening; details: no affinity
Sequence of NET (P23975 whole entry): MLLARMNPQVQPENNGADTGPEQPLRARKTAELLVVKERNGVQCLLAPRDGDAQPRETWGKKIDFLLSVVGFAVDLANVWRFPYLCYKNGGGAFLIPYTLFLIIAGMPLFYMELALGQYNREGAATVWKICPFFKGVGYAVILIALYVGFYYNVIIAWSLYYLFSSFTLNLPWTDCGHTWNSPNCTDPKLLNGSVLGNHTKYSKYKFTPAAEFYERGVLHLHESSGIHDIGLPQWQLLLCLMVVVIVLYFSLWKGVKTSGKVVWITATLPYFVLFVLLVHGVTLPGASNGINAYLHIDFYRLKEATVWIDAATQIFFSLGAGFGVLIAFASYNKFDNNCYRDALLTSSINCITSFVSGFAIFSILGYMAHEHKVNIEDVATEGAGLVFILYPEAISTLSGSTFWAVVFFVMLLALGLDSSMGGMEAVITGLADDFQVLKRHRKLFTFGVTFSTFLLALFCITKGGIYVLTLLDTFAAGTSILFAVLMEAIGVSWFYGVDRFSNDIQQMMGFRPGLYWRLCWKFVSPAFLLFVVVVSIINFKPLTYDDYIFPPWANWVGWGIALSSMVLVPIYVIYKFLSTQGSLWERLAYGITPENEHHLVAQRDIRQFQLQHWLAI

M2 = M2 (Homo sapiens, UniProt P08172); assay: PDSP screening; details: no affinity
5-HT2A receptor [3] = biological target: T1, 5-HT2A receptor; assay: PDSP screening
H4 = H4 (Homo sapiens, UniProt Q9H3N8); assay: PDSP screening; details: no affinity
Sequence of H4 (Q9H3N8 whole entry): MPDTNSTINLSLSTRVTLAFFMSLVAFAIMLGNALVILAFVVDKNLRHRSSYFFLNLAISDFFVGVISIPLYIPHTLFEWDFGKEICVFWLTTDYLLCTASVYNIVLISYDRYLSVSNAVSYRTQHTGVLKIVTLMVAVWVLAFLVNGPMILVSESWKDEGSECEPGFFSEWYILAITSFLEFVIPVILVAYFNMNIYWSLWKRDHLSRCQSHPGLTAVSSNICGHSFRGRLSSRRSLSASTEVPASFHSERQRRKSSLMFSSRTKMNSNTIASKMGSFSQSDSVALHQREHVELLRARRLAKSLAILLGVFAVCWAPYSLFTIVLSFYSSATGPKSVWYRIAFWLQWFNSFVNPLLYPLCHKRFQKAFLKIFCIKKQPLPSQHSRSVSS

KOR = KOR (Homo sapiens, UniProt P41145); assay: PDSP screening; details: no affinity
D2 = D2 (Homo sapiens, UniProt P14416); assay: PDSP screening; details: no affinity
sigma-2 = sigma-2 (Rattus norvegicus, UniProt Q5U3Y7); assay: PDSP screening
M3 = M3 (Homo sapiens, UniProt P20309); assay: PDSP screening; details: no affinity
H3 = H3 (Homo sapiens, UniProt Q9Y5N1); assay: PDSP screening; details: no affinity
5-HT1A = 5-HT1A (Homo sapiens, UniProt P08908); assay: PDSP screening; details: no affinity
Sequence of 5-HT1A (P08908 whole entry): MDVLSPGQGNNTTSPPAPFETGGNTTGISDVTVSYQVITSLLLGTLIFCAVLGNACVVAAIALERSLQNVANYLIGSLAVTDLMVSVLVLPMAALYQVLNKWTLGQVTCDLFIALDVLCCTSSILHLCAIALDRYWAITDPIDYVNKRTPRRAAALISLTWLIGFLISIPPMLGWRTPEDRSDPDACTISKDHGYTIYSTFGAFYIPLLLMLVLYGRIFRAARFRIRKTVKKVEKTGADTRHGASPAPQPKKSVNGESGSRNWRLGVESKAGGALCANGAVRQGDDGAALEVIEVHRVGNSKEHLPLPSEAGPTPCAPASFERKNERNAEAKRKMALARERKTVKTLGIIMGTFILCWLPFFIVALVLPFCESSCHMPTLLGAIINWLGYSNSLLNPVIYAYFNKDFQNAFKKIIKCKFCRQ

D4 = D4 (Homo sapiens, UniProt P21917); assay: PDSP screening; details: no affinity
Sequence of D4 (P21917 whole entry): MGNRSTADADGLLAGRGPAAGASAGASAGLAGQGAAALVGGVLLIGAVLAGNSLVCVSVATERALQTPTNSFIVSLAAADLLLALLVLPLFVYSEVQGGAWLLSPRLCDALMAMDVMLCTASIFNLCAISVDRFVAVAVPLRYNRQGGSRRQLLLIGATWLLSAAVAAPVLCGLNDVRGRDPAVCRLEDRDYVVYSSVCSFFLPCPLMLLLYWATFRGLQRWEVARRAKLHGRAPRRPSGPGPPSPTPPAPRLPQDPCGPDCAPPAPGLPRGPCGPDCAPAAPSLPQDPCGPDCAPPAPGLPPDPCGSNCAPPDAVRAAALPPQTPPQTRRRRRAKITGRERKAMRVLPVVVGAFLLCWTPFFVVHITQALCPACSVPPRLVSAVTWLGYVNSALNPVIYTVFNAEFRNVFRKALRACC

5-HT2C = 5-HT2C (Homo sapiens, UniProt P28335); assay: PDSP screening
β3 = β3 (Homo sapiens, UniProt P13945); assay: PDSP screening; details: no affinity
Sequence of β3 (P13945 whole entry): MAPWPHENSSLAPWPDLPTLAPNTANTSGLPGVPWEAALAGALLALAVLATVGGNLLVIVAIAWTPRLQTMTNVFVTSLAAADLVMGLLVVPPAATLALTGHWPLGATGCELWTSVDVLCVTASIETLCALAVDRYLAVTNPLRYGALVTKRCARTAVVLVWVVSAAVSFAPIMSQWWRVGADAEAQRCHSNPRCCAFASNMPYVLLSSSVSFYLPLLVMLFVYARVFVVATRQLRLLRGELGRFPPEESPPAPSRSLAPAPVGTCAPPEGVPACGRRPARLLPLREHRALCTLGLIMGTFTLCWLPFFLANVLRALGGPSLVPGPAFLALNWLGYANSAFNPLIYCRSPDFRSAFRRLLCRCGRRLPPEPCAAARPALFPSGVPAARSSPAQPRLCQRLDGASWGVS

BZP rat brain site = assay: PDSP screening; details: no affinity
DAT = DAT (Homo sapiens, UniProt Q01959); assay: PDSP screening
M4 = M4 (Homo sapiens, UniProt P08173); assay: PDSP screening; details: no affinity
β1 = β1 (Homo sapiens, UniProt P08588); assay: PDSP screening; details: no affinity
Sequence of β1 (P08588 whole entry): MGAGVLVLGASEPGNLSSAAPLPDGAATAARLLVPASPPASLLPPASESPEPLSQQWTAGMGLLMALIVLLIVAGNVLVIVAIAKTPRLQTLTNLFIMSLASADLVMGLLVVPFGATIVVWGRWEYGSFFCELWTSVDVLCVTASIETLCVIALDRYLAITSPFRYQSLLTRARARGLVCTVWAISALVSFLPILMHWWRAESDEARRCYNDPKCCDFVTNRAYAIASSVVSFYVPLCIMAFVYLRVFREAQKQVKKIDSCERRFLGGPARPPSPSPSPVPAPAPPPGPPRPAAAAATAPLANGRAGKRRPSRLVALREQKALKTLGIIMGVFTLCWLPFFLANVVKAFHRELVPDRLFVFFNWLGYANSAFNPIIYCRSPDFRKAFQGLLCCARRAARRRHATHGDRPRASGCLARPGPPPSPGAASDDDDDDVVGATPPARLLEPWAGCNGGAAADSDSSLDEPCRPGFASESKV

PBR = PBR (Rattus norvegicus, UniProt P16257); assay: PDSP screening
D5 = D5 (Homo sapiens, UniProt P21918); assay: PDSP screening; details: no affinity
Sequence of D5 (P21918 whole entry): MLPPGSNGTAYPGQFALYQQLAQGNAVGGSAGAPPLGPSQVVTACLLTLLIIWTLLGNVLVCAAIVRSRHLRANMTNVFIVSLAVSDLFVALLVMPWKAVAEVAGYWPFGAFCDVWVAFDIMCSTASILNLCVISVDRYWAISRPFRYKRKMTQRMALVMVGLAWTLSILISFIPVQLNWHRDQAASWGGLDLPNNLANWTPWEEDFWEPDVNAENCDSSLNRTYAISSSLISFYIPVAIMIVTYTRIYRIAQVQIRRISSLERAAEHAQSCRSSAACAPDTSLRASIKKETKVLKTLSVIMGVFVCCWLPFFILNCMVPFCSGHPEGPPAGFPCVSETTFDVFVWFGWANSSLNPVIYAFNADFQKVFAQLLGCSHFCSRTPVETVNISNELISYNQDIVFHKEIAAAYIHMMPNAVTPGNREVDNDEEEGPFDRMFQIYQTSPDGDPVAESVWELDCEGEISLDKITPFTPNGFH

α1B = α1B (Homo sapiens, UniProt P35368); assay: PDSP screening; details: no affinity
α2A = α2A (Homo sapiens, UniProt P08913); assay: PDSP screening
α1A = α1A (Homo sapiens, UniProt P35348); assay: PDSP screening; details: no affinity
M1 = M1 (Homo sapiens, UniProt P11229); assay: PDSP screening; details: no affinity
5-HT6 = 5-HT6 (Homo sapiens, UniProt P50406); assay: PDSP screening
Sequence of 5-HT6 (P50406 whole entry, species assumed): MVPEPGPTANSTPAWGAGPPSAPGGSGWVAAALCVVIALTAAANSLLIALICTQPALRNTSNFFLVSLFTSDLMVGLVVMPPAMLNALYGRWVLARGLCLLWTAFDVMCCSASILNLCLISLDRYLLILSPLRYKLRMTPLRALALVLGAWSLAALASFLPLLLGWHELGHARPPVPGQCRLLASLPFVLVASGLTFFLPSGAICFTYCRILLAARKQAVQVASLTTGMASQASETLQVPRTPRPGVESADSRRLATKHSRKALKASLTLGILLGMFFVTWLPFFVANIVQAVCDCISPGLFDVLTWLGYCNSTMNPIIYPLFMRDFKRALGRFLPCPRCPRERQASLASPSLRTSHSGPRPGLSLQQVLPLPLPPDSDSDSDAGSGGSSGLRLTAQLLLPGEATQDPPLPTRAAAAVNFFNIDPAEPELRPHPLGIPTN

α1D = α1D (Homo sapiens, UniProt P25100); assay: PDSP screening; details: no affinity
MOR = MOR (Homo sapiens, UniProt P35372); assay: PDSP screening; details: no affinity
Sequence of MOR (P35372 whole entry): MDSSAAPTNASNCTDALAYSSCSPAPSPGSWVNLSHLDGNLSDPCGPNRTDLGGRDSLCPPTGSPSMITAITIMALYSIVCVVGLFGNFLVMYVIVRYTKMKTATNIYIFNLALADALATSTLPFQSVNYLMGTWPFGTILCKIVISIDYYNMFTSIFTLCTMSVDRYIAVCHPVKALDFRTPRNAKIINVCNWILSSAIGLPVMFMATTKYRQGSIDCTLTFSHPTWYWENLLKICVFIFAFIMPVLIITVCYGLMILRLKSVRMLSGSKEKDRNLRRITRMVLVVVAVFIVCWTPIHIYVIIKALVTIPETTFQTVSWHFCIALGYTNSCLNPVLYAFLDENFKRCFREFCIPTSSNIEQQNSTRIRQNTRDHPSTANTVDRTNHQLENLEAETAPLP

β2 = β2 (Homo sapiens, UniProt P07550); assay: PDSP screening; details: no affinity
Sequence of β2 (P07550 whole entry): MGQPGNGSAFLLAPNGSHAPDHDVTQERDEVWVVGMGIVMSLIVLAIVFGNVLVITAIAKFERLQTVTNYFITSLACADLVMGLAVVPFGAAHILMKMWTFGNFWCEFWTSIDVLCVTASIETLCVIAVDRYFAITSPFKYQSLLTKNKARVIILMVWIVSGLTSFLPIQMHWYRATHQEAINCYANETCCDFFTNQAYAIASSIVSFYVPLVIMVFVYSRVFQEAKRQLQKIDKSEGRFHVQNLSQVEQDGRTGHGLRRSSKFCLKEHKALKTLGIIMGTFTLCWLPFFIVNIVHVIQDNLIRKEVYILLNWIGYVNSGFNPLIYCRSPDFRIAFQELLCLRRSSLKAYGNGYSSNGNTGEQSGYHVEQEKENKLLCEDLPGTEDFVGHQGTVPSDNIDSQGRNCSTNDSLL

GABAA = assay: PDSP screening; details: no affinity
SERT = SERT (Homo sapiens, UniProt P31645); assay: PDSP screening; details: no affinity
DOR = DOR (Homo sapiens, UniProt P41143); assay: PDSP screening; details: no affinity
H1 = H1 (Homo sapiens, UniProt P35367); assay: PDSP screening; details: no affinity
α1A adrenergic receptor [4] = biological target: T2, α1A adrenergic receptor; details: prior SAR studies; cited from earlier work

T1 sequence (P28223 whole entry): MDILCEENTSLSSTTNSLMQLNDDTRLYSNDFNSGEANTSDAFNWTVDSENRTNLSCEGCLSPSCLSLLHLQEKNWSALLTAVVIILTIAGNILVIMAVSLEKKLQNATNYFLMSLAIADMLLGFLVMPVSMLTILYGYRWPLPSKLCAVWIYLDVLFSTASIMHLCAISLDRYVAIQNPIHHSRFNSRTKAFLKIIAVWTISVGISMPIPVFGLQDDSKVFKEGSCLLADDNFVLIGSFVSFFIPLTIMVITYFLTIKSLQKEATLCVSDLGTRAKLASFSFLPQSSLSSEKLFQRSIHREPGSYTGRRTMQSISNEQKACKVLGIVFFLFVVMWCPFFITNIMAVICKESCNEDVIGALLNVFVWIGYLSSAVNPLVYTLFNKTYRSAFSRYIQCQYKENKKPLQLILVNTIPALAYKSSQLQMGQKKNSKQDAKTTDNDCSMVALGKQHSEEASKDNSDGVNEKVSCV

COc1cc2c3c(c1OCc1ccc(Cl)cc1)-c1cc4c(cc1CC3N(C)CC2)OCO4 (stereo not drawn) [Compound 8i]
Kb (5-HT2A receptor [1]): 6050 nM
Selectivity α1A/5-HT2A (5-HT2A receptor [1]): > 1.7
Kb (α1A adrenergic receptor [2]): > 10000 nM

COc1cc2c3c(c1OCc1ccc(Br)cc1)-c1cc4c(cc1CC3N(C)CC2)OCO4 (stereo not drawn) [Compound 8k]
inhibition in a primary assay, 5-HT5A (5-HT5A): less than 50%
inhibition in a primary assay, NET (NET): less than 50%
inhibition in a primary assay, M2 (M2): less than 50%
Ki (5-HT2A receptor [3]): 185 nM
inhibition in a primary assay, H4 (H4): less than 50%
inhibition in a primary assay, KOR (KOR): less than 50%
inhibition in a primary assay, D2 (D2): less than 50%
Ki (sigma-2): 300 to 900 nM
inhibition in a primary assay, M3 (M3): less than 50%
inhibition in a primary assay, H3 (H3): less than 50%
inhibition in a primary assay, 5-HT1A (5-HT1A): less than 50%
inhibition in a primary assay, D4 (D4): less than 50%
Ki (5-HT2C): 300 to 900 nM
inhibition in a primary assay, β3 (β3): less than 50%
inhibition in a primary assay, BZP rat brain site (BZP rat brain site): less than 50%
Ki (DAT): 300 to 900 nM
inhibition in a primary assay, M4 (M4): less than 50%
Kb (5-HT2A receptor [1]): 9.2 ± 2.6 nM
Selectivity α1A/5-HT2A (5-HT2A receptor [1]): >1,086
inhibition in a primary assay, β1 (β1): less than 50%
Ki (PBR): > 900 nM
inhibition in a primary assay, D5 (D5): less than 50%
inhibition in a primary assay, α1B (α1B): less than 50%
Ki (α2A): 300 to 900 nM
inhibition in a primary assay, α1A (α1A): less than 50%
inhibition in a primary assay, M1 (M1): less than 50%
Ki (5-HT6): 300 to 900 nM
inhibition in a primary assay, α1D (α1D): less than 50%
inhibition in a primary assay, MOR (MOR): less than 50%
inhibition in a primary assay, β2 (β2): less than 50%
inhibition in a primary assay, GABAA (GABAA): less than 50%
inhibition in a primary assay, SERT (SERT): less than 50%
Kb (α1A adrenergic receptor [2]): > 10000 nM
inhibition in a primary assay, DOR (DOR): less than 50%
inhibition in a primary assay, H1 (H1): less than 50%

C=CCOc1c(OC)cc2c3c1-c1cc4c(cc1CC3N(C)CC2)OCO4 (stereo not drawn) [Compound 5]
affinity for the α1A adrenergic receptor (α1A adrenergic receptor [4]): devoid of affinity
Kb (α1A adrenergic receptor [2]): > 10000 nM

COc1cc2c3c(c1OCC=C(C)C)-c1cc4c(cc1CC3N(C)CC2)OCO4 (stereo not drawn) [Compound 8c]
Kb (α1A adrenergic receptor [2]): > 10000 nM

COc1cc2c3c(c1OCc1ccc(C(F)(F)F)cc1)-c1cc4c(cc1CC3N(C)CC2)OCO4 (stereo not drawn) [Compound 8j]
Kb (5-HT2A receptor [1]): 2460 nM
Selectivity α1A/5-HT2A (5-HT2A receptor [1]): > 4.1
Kb (α1A adrenergic receptor [2]): > 10000 nM

C/C=C/COc1c(OC)cc2c3c1-c1cc4c(cc1CC3N(C)CC2)OCO4 (stereo not drawn) [Compound 8a]
Kb (α1A adrenergic receptor [2]): 1980 nM

COc1cc2c3c(c1OC)-c1cc4c(cc1CC3N(C)CC2)OCO4 (stereo not drawn) [Compound 4, nantenine, reference compound]
Kb (α1A adrenergic receptor [2]): 36 ± 7 nM

C=C(C)COc1c(OC)cc2c3c1-c1cc4c(cc1CC3N(C)CC2)OCO4 (stereo not drawn) [Compound 8b]
Kb (α1A adrenergic receptor [2]): > 10000 nM

COc1cc2c3c(c1OCCOC(C)=O)-c1cc4c(cc1CC3N(C)CC2)OCO4 (stereo not drawn) [Compound 8h]
Kb (5-HT2A receptor [1]): 1910 nM
Kb (α1A adrenergic receptor [2]): 591 ± 81 nM

COc1cc2c3c(c1OCC#N)-c1cc4c(cc1CC3N(C)CC2)OCO4 (stereo not drawn) [Compound 8g]
Kb (5-HT2A receptor [1]): > 10000 nM
Selectivity α1A/5-HT2A (5-HT2A receptor [1]): < 0.07
Kb (α1A adrenergic receptor [2]): 711 ± 64 nM

COc1cc2c3c(c1OC/C=C/c1ccccc1)-c1cc4c(cc1CC3N(C)CC2)OCO4 (stereo not drawn) [Compound 8e]
Kb (5-HT2A receptor [1]): > 10000 nM
Kb (α1A adrenergic receptor [2]): > 10000 nM
